The text below walks through data of patent US4013777A, “Bis-phenoxypropanolamines” (SmithKline Corporation, priority 1975, dated 1977).

In experiment [1] the test system is guinea pig tracheal chain preparations. Put plainly: spontaneous tone of guinea pig tracheal chain (ring) preparation, relaxant effect. Particulars: for absolute separation ratio: atrial ED25 versus tracheal ED50, guinea pig in vitro preparations. The text has this:
(§1) Two in vitro test systems used for determining selective β-stimulant activity are: (1) effect on spontaneous tone of guinea pig tracheal chain preparations as a measure of β-stimulant (direct relaxant) effect on airway smooth muscle, and (2) effect on rate of spontaneously beating right atria of the guinea pig as a measure of β-stimulant effect on cardiac muscle.

Experiment [2] has as its system right atria of the guinea pig. As to the kind of experiment: rate of spontaneously beating guinea pig right atria. Particulars: Cavia porcellus; in vitro; β-stimulant effect on cardiac muscle; read-out: ED25, increasing the rate of contraction of guinea pig right atria.
Text: as §1

SMILES strings stand for the structures. ≈ marks a conversion by molar mass, not a printed value.

As to `CC(C)NCC(O)c1ccc(O)c(O)c1` (racemic) [d,l isoproterenol, reference compound], the absolute separation ratio in experiment [1] came out at 0.5.
With `Oc1ccc(OCC(O)CNCCCCCCNCC(O)COc2ccc(O)c(O)c2)cc1O` (centres unmarked) [N,N'-bis[3,4-dihydroxyphenoxy)-2-hydroxypropyl]-1,6-diaminohexane], in experiment [1] (Cavia porcellus, in vitro, β-stimulant (direct relaxant) effect on airway smooth muscle, read-out: ED50, relaxes the spontaneous tone of guinea pig tracheal ring preparation), the EC50 turned out to be 0.00414 µg/mL (≈ 0.00861 µM). Further, the absolute separation ratio in experiment [1] stood at 7. Moreover, the “improvement of absolute separation ratio compared to d,l isoproterenol” value in experiment [1] (versus d,l isoproterenol in similar in vitro preparations) came to 14 fold. In addition, the EC25 in experiment [2] stood at 0.029 µg/mL (≈ 0.0603 µM).
